Test results published in patent US8592456B2 (4SC Discovery GmbH, priority 2011, dated 2013).

Each compound was assayed on PBMC (T cell proliferation) (assay: T cell proliferation assay, PHA-stimulated human PBMC (BrdU ELISA)). Conditions: PHA-stimulated human PBMC, 48 hours, BrdU; column D; activity classes 1-4; read-out: IC50 (Tcell proliferation).
Assay type: cell-based
Summary of the method: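 BrdU ELISA readout of proliferation at 48 hours. Cells: human PBMC from healthy donors in 10% dialyzed FCS/RPMI1640, 1×10^5 per well, activated by 2 μg/ml phytohaemagglutinin in the presence of compound.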

SMILES	IC50 [nM]
NS(=O)(=O)c1cccc(-n2ncc(-c3onc(-c4c(F)cccc4Cl)c3-c3nnco3)c2C(F)(F)F)c1 [IB-17, 3-(4-(3-(2-chloro-6-fluorophenyl)-4-(1,3,4-oxadiazol-2-yl)isoxazol-5-yl)-5-(trifluoromethyl)-1H-pyrazol-1-yl)benzenesulfonamide]	1000 to 10000
CCOC(=O)c1csc(-c2c(-c3c(F)cccc3Cl)noc2-c2cnn(-c3cccc(F)c3)c2C(F)(F)F)n1 [IB-1, ethyl 2-{3-(2-chloro-6-fluorophenyl)-5-[1-(3-fluorophenyl)-5-(trifluoromethyl)-1H-pyrazol-4-yl]isoxazol-4-yl}-1,3-thiazole-4-carboxylate]	100 to 1000
CC(C)Cn1ncc(-c2onc(-c3c(F)cccc3Cl)c2-c2nnn[nH]2)c1C(F)(F)F [Example I-1, 3-(2-chloro-6-fluorophenyl)-5-(1-isobutyl-5-(trifluoromethyl)-1H-pyrazol-4-yl)-4-(1H-tetrazol-5-yl)isoxazole]	1000 to 10000
Fc1cccc(Cl)c1-c1noc(-c2cnn(-c3cccnc3)c2C(F)(F)F)c1-c1nnco1 [IB-15, 2-(3-(2-chloro-6-fluorophenyl)-5-(1-(pyridin-3-yl)-5-(trifluoromethyl)-1H-pyrazol-4-yl)isoxazol-4-yl)-1,3,4-oxadiazole]	100 to 1000
Fc1ccccc1-n1ncc(-c2onc(-c3c(F)cccc3Cl)c2-c2nnco2)c1C(F)(F)F [Example I-15, 2-(3-(2-chloro-6-fluorophenyl)-5-(1-(2-fluorophenyl)-5-(trifluoromethyl)-1H-pyrazol-4-yl)isoxazol-4-yl)-1,3,4-oxadiazole]	100 to 1000
COC(=O)c1csc(-c2c(-c3c(F)cccc3Cl)noc2-c2cnn(-c3cccc(F)c3)c2C(F)(F)F)n1 [IB-2, methyl 2-{3-(2-chloro-6-fluorophenyl)-5-[1-(3-fluorophenyl)-5-(trifluoromethyl)-1H-pyrazol-4-yl]isoxazol-4-yl}-1,3-thiazole-4-carboxylate]	100 to 1000

Same assay, conditions: human PBMC, 2 μg/ml PHA, 48 hours, BrdU; read-out: D: IC50 (Tcell proliferation)

SMILES	IC50 [nM]
CC(C)OC(=O)c1c(-c2c(F)cccc2Cl)noc1-c1cnn(-c2ccncc2)c1C(F)(F)F [Example B-82, isopropyl 3-(2-chloro-6-fluorophenyl)-5-(1-(pyridin-4-yl)-5-(trifluoromethyl)-1H-pyrazol-4-yl)isoxazole-4-carboxylate]	10 to 100
CCOC(=O)c1c(-c2ccncc2F)noc1-c1cnn(-c2ccncc2)c1C(F)(F)F [Example B-3, ethyl 3-(3-fluoropyridin-4-yl)-5-(1-(pyridin-4-yl)-5-(trifluoromethyl)-1H-pyrazol-4-yl)isoxazole-4-carboxylate]	100 to 1000
CCOC(=O)c1c(-c2c(Cl)cccc2Cl)noc1-c1cnn(-c2cccc(Cl)c2)c1C(F)(F)F [Example B-45, ethyl 5-(1-(3-chlorophenyl)-5-(trifluoromethyl)-1H-pyrazol-4-yl)-3-(2,6-dichlorophenyl)-isoxazole-4-carboxylate]	< 10
Nc1c(-c2c(F)cccc2Cl)noc1-c1cnn(-c2cccc(Cl)c2)c1C(F)(F)F [Example B-36, 3-(2-chloro-6-fluorophenyl)-5-(1-(3-chlorophenyl)-5-(trifluoromethyl)-1H-pyrazol-4-yl)isoxazol-4-amine]	100 to 1000
CNC(=O)c1c(-c2c(Cl)cccc2Cl)noc1-c1cnn(-c2cccc(F)c2)c1C(F)(F)F [Example 110, 3-(2,6-dichlorophenyl)-5-(1-(3-fluorophenyl)-5-(trifluoromethyl)-1H-pyrazol-4-yl)-N-methylisoxazole-4-carboxamide]	10 to 100
CNC(=O)c1c(-c2c(F)cccc2Cl)noc1-c1cnn(-c2ccc(F)cc2)c1C(F)(F)F [Example 55, 3-(2-chloro-6-fluorophenyl)-5-(1-(4-fluorophenyl)-5-(trifluoromethyl)-1H-pyrazol-4-yl)-N-methylisoxazole-4-carboxamide]	100 to 1000
O=C(NCc1ccccc1C(F)(F)F)c1c(-c2c(F)cccc2Cl)noc1-c1cnn(-c2ccccc2F)c1C(F)(F)F [Example 23, 3-(2-chloro-6-fluorophenyl)-5-(1-(2-fluorophenyl)-5-(trifluoromethyl)-1H-pyrazol-4-yl)-N-(2-(trifluoromethyl)benzyl)isoxazole-4-carboxamide]	1000 to 10000
CON(C)C(=O)c1c(-c2c(F)cccc2Cl)noc1-c1cnn(-c2ccccc2Cl)c1C(F)(F)F [Example B-51, 3-(2-chloro-6-fluorophenyl)-5-(1-(2-chlorophenyl)-5-(trifluoromethyl)-1H-pyrazol-4-yl)-N-methoxy-N-methylisoxazole-4-carboxamide]	1000 to 10000
CCOC(=O)c1c(-c2onc(-c3c(F)cccc3Cl)c2C(=O)OC)cnn1-c1ccc(F)cc1 [Example 26, methyl 3-(2-chloro-6-fluorophenyl)-5-(5-(ethoxycarbonyl)-1-(4-fluorophenyl)-1H-pyrazol-4-yl)isoxazole-4-carboxylate]	1000 to 10000
CON(C)C(=O)c1c(-c2c(F)cccc2Cl)noc1-c1cnn(-c2ccccc2F)c1C(F)(F)F [Example B-53, 3-(2-chloro-6-fluorophenyl)-5-(1-(2-fluorophenyl)-5-(trifluoromethyl)-1H-pyrazol-4-yl)-N-methoxy-N-methylisoxazole-4-carboxamide]	100 to 1000
CCOC(=O)c1c(-c2c(F)cccc2Cl)noc1-c1cnn(-c2ccccc2Br)c1C(F)(F)F [Example B-72, ethyl 5-(1-(2-bromophenyl)-5-(trifluoromethyl)-1H-pyrazol-4-yl)-3-(2-chloro-6-fluorophenyl)isoxazole-4-carboxylate]	100 to 1000
CCOC(=O)c1c(-c2onc(-c3c(F)cccc3Cl)c2C(=O)OC)cnn1-c1cccc(C#N)c1 [Example 13, methyl 3-(2-chloro-6-fluorophenyl)-5-(1-(3-cyanophenyl)-5-(ethoxycarbonyl)-1H-pyrazol-4-yl)isoxazole-4-carboxylate]	100 to 1000
COC(=O)c1c(-c2c(F)cccc2Cl)noc1-c1cnn(-c2ccncc2)c1C(F)(F)F [Example B-69, methyl 3-(2-chloro-6-fluorophenyl)-5-(1-(pyridin-4-yl)-5-(trifluoromethyl)-1H-pyrazol-4-yl)isoxazole-4-carboxylate]	10 to 100
NC(=S)c1c(-c2c(F)cccc2Cl)noc1-c1cnn(-c2ccccc2Cl)c1C(F)(F)F [Example B-101, 3-(2-chloro-6-fluorophenyl)-5-(1-(2-chlorophenyl)-5-(trifluoromethyl)-1H-pyrazol-4-yl)isoxazole-4-carbothioamide]	1000 to 10000
CCOC(=O)c1c(-c2c(Cl)cncc2Cl)noc1-c1cnn(-c2ccccc2Cl)c1C(F)(F)F [Example B-16, ethyl 5-(1-(2-chlorophenyl)-5-(trifluoromethyl)-1H-pyrazol-4-yl)-3-(3,5-dichloropyridin-4-yl)isoxazole-4-carboxylate]	1000 to 10000
CCOC(=O)c1c(-c2c(F)cccc2Cl)noc1-c1cnn(-c2cccc(C(N)=O)c2)c1C(F)(F)F [Example B-100, ethyl 5-(1-(3-carbamoylphenyl)-5-(trifluoromethyl)-1H-pyrazol-4-yl)-3-(2-chloro-6-fluorophenyl)isoxazole-4-carboxylate]	1000 to 10000
COC(=O)c1c(-c2c(F)cccc2Cl)noc1-c1cnn(-c2cccc(C(F)(F)F)c2)c1C(F)(F)F [Example 82, methyl 3-(2-chloro-6-fluorophenyl)-5-(5-(trifluoromethyl)-1-(3-(trifluoromethyl)phenyl)-1H-pyrazol-4-yl)isoxazole-4-carboxylate]	1000 to 10000
